Measured values published in PubChem BioAssay (NCI).
“And” between values parts separate entries of the source, which are not always exact repeats. Identical values can stand only once.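 Tested at 5 concentrations; 48 h exposure; 96-well plates; endpoints linearly interpolated, else capped at highest concentration. GI50 = concentration required for 50% inhibition of growth. TGI: total growth inhibition.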

Key:
Test in all cases: NCI tumour cell line growth inhibition, 48 h
PC-3 prostate = tested on: PC-3 prostate
SW-620 colon = tested on: SW-620 colon
CCRF-CEM leukemia = tested on: CCRF-CEM leukemia
HCT-116 colon = tested on: HCT-116 colon
786-0 renal = tested on: 786-0 renal
A549 NSCLC = tested on: A549 NSCLC
SNB-19 CNS = tested on: SNB-19 CNS
HT29 colon = tested on: HT29 colon
HCC-2998 colon = tested on: HCC-2998 colon
CAKI-1 renal = tested on: CAKI-1 renal
BT-549 breast = tested on: BT-549 breast
HS 578T breast = tested on: HS 578T breast
OVCAR-3 ovarian = tested on: OVCAR-3 ovarian
K-562 leukemia = tested on: K-562 leukemia
SF-268 CNS = tested on: SF-268 CNS
MCF7 breast = tested on: MCF7 breast
TK-10 renal = tested on: TK-10 renal

| Compound | TGI (PC-3 prostate) [µM] | TGI (SW-620 colon) | TGI (CCRF-CEM leukemia) [µM] | TGI (HCT-116 colon) | TGI (786-0 renal) | TGI (A549 NSCLC) | GI50 (SNB-19 CNS) [µM] | TGI (HT29 colon) | TGI (HCC-2998 colon) | TGI (CAKI-1 renal) | TGI (BT-549 breast) [µM] | TGI (HS 578T breast) [µM] | GI50 (OVCAR-3 ovarian) [µM] | TGI (OVCAR-3 ovarian) | TGI (K-562 leukemia) [µM] | GI50 (SF-268 CNS) [µM] | TGI (SF-268 CNS) | TGI (MCF7 breast) [µM] | TGI (TK-10 renal) [µM] | TGI (SNB-19 CNS) [µM] |
| --- | --- | --- | --- | --- | --- | --- | --- | --- | --- | --- | --- | --- | --- | --- | --- | --- | --- | --- | --- | --- |
| CCN(CC)CCNc1c2ccccc2nc2cccc([N+](=O)[O-])c12 | 0.0122 | 0.0395 µM and 0.172 µM | 0.48 | 0.0182 µM and 0.0466 µM | 0.0266 µM and 0.0489 µM | 0.018 µM and 0.0391 µM | 0.0166 | 0.0408 µM and 0.0455 µM | 0.0315 µM and 0.0156 µM | 0.0254 µM and 0.0721 µM | 0.0187 | 0.039 | 0.0244 | 0.0241 µM and 0.0621 µM | 0.121 | 0.0193 | 0.056 µM and 0.42 µM | 0.0063 | 0.0813 | – |
| CC(=O)N1C(C(=O)NN2CCOCC2)CSC1c1ccccc1 (centres undefined) | > 100 | > 100 µM | > 100 | > 100 µM | > 100 µM | > 100 µM | – | > 100 µM | > 100 µM | > 100 µM | > 100 | > 100 | – | > 100 µM | > 100 | – | > 100 µM | > 100 | > 100 | > 100 |
| COc1c(C)c(C/C=C(\C)CC/C=C(\C)CC/C=C(\C)CCC=C(C)C)c(OC)c(OC)c1OC | > 100 | > 100 µM | > 100 | > 100 µM | > 100 µM | > 100 µM | – | > 100 µM | > 100 µM | > 100 µM | > 100 | > 100 | – | > 100 µM | > 100 | – | > 100 µM | > 100 | > 100 | > 100 |
| c1ccc(-c2cnc(SC(c3ccccc3)c3ccccc3)[nH]2)cc1 | 84.7 | > 100 µM | > 100 | > 100 µM | > 100 µM | > 100 µM | – | > 100 µM | 35.8 µM | > 100 µM | > 100 | > 100 | – | > 100 µM | > 100 | – | > 100 µM | 74.7 | > 100 | > 100 |
| CCO/C(O)=C(/C(=N)N1CCOCC1)C(=O)Nc1cccc(C(F)(F)F)c1 | > 100 | > 100 µM | > 100 | > 100 µM | > 100 µM | > 100 µM | – | > 100 µM | > 100 µM | > 100 µM | > 100 | > 100 | – | > 100 µM | > 100 | – | > 100 µM | > 100 | > 100 | > 100 |
| CCOC(=O)c1c(N2CCCC2)[nH]c(=O)c(C(c2c(O)c(C(=O)OCC)c(N3CCCC3)[nH]c2=O)C(C)C)c1O | > 100 | > 100 µM | > 100 | > 100 µM | > 100 µM | > 100 µM | – | > 100 µM | > 100 µM | > 100 µM | > 100 | > 100 | – | > 100 µM | > 100 | – | > 100 µM | > 100 | > 100 | > 100 |
